How the values were obtained:
[1] = target: T1, CDK2/A (Homo sapiens, UniProt P24941); assay: Inhibitory activity to CDK2 (FRET); type: biochemical; conditions: for inhibition at 1 µM: read-out: CDK2 inhibition % (1 × 10^−6 mol/L)
T1 construct: purchased
Experimental: CDK2/A was purchased in the form of a kit or obtained through purification.
Procedures: CDK2/A is diluted to a suitable concentration with kinase diluent. The kinase reaction mixture contains CDK2/A, peptide substrate, HEPES (pH7.5), BRIJ-35, MgCl2 and EDTA. CDK2 phospho-peptide substrate is used as the control of 100% phosphorylation and ATP-free as the control of 0% phosphorylation. After 1 h, the diluted Development Reagent A is added into the reaction system. Then the reaction is allowed to proceed for 1 h and then quenched with Stop Reagent. […] The inhibitions of the tested compounds are calculated according to the formula.

[2] = target: T2, Aurora A (Homo sapiens, UniProt O14965); assay: Inhibitory activity to Aurora A (FRET); type: biochemical; conditions: for inhibition at 1 µM: read-out: Aurora A inhibition % (1 × 10^−6 mol/L)
T2 construct: purchased
T2 sequence (O14965 1-403): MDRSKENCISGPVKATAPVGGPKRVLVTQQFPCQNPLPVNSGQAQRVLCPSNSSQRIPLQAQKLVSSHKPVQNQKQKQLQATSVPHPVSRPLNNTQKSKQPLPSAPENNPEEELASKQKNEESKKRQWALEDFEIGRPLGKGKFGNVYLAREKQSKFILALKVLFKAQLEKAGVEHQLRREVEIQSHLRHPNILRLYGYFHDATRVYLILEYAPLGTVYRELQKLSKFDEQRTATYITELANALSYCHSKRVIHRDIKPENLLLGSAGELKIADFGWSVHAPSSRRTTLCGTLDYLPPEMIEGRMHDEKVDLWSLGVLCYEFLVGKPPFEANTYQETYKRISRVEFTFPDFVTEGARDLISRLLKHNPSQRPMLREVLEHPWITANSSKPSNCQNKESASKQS
Experimental: The inhibitory activities of the synthesized compounds for Aurora A is determined by fluorescence resonance energy transfer (FRET) and were compared with the positive control drug so as to screen the compounds with better activities. Aurora A was purchased in the form of a kit or obtained through purification. Procedures: Aurora A is diluted to a suitable concentration with kinase diluent. The kinase reaction mixture contains Aurora A, peptide substrate, HEPES (pH7.5), BRIJ-35, MgCl2 and EDTA. Aurora A phospho-peptide substrate is used as the control of 100% phosphorylation and ATP-free as the control of 0% phosphorylation. After 1 h, the diluted Development Reagent A is added into the reaction system. Then the reaction is allowed to proceed for 1 h and then quenched with Stop Reagent. The excitation wavelength is 400 nm and the fluorescence intensity is detected at 445 nm (coumarin) and 520 nm (fluorescein). The inhibitions of the tested compounds are calculated according to the formula.

Row | CDK2 inhibition % (1 × 10^−6 mol/L) [1] | Aurora A inhibition % (1 × 10^−6 mol/L) [2] | inhibition at 1 µM [1] | inhibition at 1 µM [2] | melting point | Compound
1 | 75.91% | 54.94% | – | – | – | 4-(7-(1H-pyrrolo[2,3-c]pyridyl)amino)-N-(4-((4-morpholinyl)methyl)phenyl)-1H-3-pyrazolecarboxamide [Compound I-44]
2 | 52.73% | 64.46% | – | – | – | Cc1cc2c(Nc3c[nH]nc3C(=O)Nc3ccc(CN4CCOCC4)cc3)ncnc2s1 [Compound I-4, 4-(4-(6-methylthieno[2,3-d]pyrimidinyl)amino)-N-(4-((4-morpholinyl)methyl)phenyl)-1H-3-pyrazolecarboxamide]
3 | 51.24% | 58.62% | – | – | – | Cc1csc2ncnc(Nc3c[nH]nc3C(=O)Nc3ccc(CN4CCN(C)CC4)cc3)c12 [Compound I-5, 4-(4-(5-methylthieno[2,3-d]pyrimidinyl)amino)-N-(4-((4-methyl-1-piperazinyl)methyl)phenyl)-1H-3-pyrazolecarboxamide]
4 | 60.68% | 54.80% | – | – | – | Cc1csc2ncnc(Nc3c[nH]nc3C(=O)Nc3ccc(CN4CCOCC4)cc3)c12 [Compound I-6, 4-(4-(5-methylthieno[2,3-d]pyrimidinyl)amino)-N-(4-((4-morpholinyl)methyl)phenyl)-1H-3-pyrazolecarboxamide]
5 | 65.12% | 54.93% | – | – | – | Cc1sc2ncnc(Nc3c[nH]nc3C(=O)Nc3ccc(CN4CCN(C)CC4)cc3)c2c1C [Compound I-7, 4-(4-(5,6-dimethylthieno[2,3-d]pyrimidinyl)amino)-N-(4-((4-methyl-1-piperazinyl)methyl)phenyl)-1H-3-pyrazolecarboxamide]
6 | 54.65% | 48.49% | – | – | – | Cc1sc2ncnc(Nc3c[nH]nc3C(=O)Nc3ccc(CN4CCOCC4)cc3)c2c1C [Compound I-8, 4-(4-(5,6-dimethylthieno[2,3-d]pyrimidinyl)amino)-N-(4-((4-morpholinyl)methyl)phenyl)-1H-3-pyrazolecarboxamide]
7 | – | – | 56.2% | 54.9% | 275 to 277 °C | O=C(Nc1ccc(CN2CCOCC2)cc1)c1n[nH]cc1Nc1ncnc2ccsc12 [Compound I-10, 4-(4-thieno[3,2-d]pyrimidinylamino)-N-(4-((4-morpholinyl)methyl)phenyl)-1H-3-pyrazolecarboxamide]
8 | 66.39% | 49.44% | – | – | – | O=C(Nc1ccc(CN2CCOCC2)cc1)c1n[nH]cc1Nc1ncnc2[nH]ccc12 [Compound I-12, 4-(4-(7H-pyrrolo[2,3-d]pyrimidinyl)amino)-N-(4-((4-morpholinyl)methyl)phenyl)-1H-3-pyrazolecarboxamide]
9 | 65.78% | 66.26% | – | – | – | Cc1cc2c(Nc3c[nH]nc3C(=O)Nc3ccc(CN4CCOCC4)cc3)ncnc2[nH]1 [Compound I-14, 4-(4-(6-methyl-7H-pyrrolo[2,3-d]pyrimidinyl)amino)-N-(4-((4-morpholinyl)methyl)phenyl)-1H-3-pyrazolecarboxamide]
10 | 64.99% | 53.66% | – | – | – | O=C(Nc1ccc(CN2CCOCC2)cc1)c1n[nH]cc1Nc1ncnc2cc[nH]c12 [Compound I-18, 4-(4-(5H-pyrrolo[3,2-d]pyrimidinyl)amino)-N-(4-((4-morpholinyl)methyl)phenyl)-1H-3-pyrazolecarboxamide]
11 | 62.25% | 60.72% | – | – | – | Cc1cc2ncnc(Nc3c[nH]nc3C(=O)Nc3ccc(CN4CCOCC4)cc3)c2[nH]1 [Compound I-20, 4-(4-(6-methyl-5H-pyrrolo[3,2-d]pyrimidinyl)amino)-N-(4-((4-morpholinyl)methyl)phenyl)-1H-3-pyrazolecarboxamide]
12 | – | – | 67.1% | 49.2% | 271 to 273 °C | O=C(Nc1ccc(CN2CCOCC2)cc1)c1n[nH]cc1Nc1ncnc2ccoc12 [Compound I-24, 4-(4-furo[3,2-d]pyrimidinylamino)-N-(4-((4-morpholinyl)methyl)phenyl)-1H-3-pyrazolecarboxamide]
13 | – | – | 73.1% | 61.1% | 269 to 271 °C | O=C(Nc1ccc(CN2CCOCC2)cc1)c1n[nH]cc1Nc1nccc2sccc12 [Compound I-26, 4-(4-thieno[3,2-c]pyridylamino)-N-(4-((4-morpholinyl)methyl)phenyl)-1H-3-pyrazolecarboxamide]
14 | 76.91% | 67.63% | – | – | – | Cc1cc2c(Nc3c[nH]nc3C(=O)Nc3ccc(CN4CCOCC4)cc3)nccc2s1 [Compound I-28, 4-(4-(2-methylthieno[3,2-c]pyridyl)amino)-N-(4-((4-morpholinyl)methyl)phenyl)-1H-3-pyrazolecarboxamide]
15 | – | – | 73.1% | 55.1% | 271 to 273 °C | O=C(Nc1ccc(CN2CCOCC2)cc1)c1n[nH]cc1Nc1nccc2ccsc12 [Compound I-30, 4-(7-thieno[2,3-c]pyridylamino)-N-(4-((4-morpholinyl)methyl)phenyl)-1H-3-pyrazolecarboxamide]
16 | 45.34% | 70.27% | – | – | – | Cc1csc2c(Nc3c[nH]nc3C(=O)Nc3ccc(CN4CCN(C)CC4)cc3)nccc12 [Compound I-31, 4-(7-(3-methylthieno[2,3-c]pyridyl)amino)-N-(4-((4-methyl-1-piperazinyl)methyl)phenyl)-1H-3-pyrazolecarboxamide]
17 | 38.28% | 67.45% | – | – | – | Cc1csc2c(Nc3c[nH]nc3C(=O)Nc3ccc(CN4CCOCC4)cc3)nccc12 [Compound I-32, 4-(7-(3-methylthieno[2,3-c]pyridyl)amino)-N-(4-((4-morpholinyl)methy)phenyl)-1H-3-pyrazolecarboxamide]
18 | 44.93% | 45.08% | – | – | – | CN1CCN(Cc2ccc(NC(=O)c3n[nH]cc3Nc3nccc4occc34)cc2)CC1 [Compound I-33, 4-(4-furo[3,2-c]pyridylamino)-N-(4-((4-methyl-1-piperazinyl)menthyl)phenyl)-1H-3-pyrazolecarboxamide]
19 | – | – | 65.8% | 50.5% | 268 to 271 °C | O=C(Nc1ccc(CN2CCOCC2)cc1)c1n[nH]cc1Nc1nccc2occc12 [Compound I-34, 4-(4-furo[3,2-c]pyridylamino)-N-(4-((4-morpholinyl)methyl)phenyl)-1H-3-pyrazolecarboxamide]
20 | 73.23% | 55.99% | – | – | – | Cc1cc2c(Nc3c[nH]nc3C(=O)Nc3ccc(CN4CCN(C)CC4)cc3)nccc2o1 [Compound I-35, 4-(4-(2-methylfuro[3,2-c]pyridyl)amino)-N-(4-((4-methyl-1-piperazinyl)methyl)phenyl)-1H-3-pyrazolecarboxamide]
21 | 64.51% | 56.23% | – | – | – | Cc1cc2c(Nc3c[nH]nc3C(=O)Nc3ccc(CN4CCOCC4)cc3)nccc2o1 [Compound I-36, 4-(4-(2-methylfuro[3,2-c]pyridyl)amino)-N-(4-((4-morpholinyl)methyl)phenyl)-1H-3-pyrazolecarboxamide]
22 | 76.09% | 55.02% | – | – | – | CN1CCN(Cc2ccc(NC(=O)c3n[nH]cc3Nc3nccc4cc[nH]c34)cc2)CC1 [Compound I-43, 4-(7-(1H-pyrrolo[2,3-c]pyridyl)amino)-N-(4-((4-methyl-1-piperazinyl)methyl)phenyl)-1H-3-pyrazolecarboxamide]
23 | 60.11% | 63.21% | – | – | – | Cc1cc2ccnc(Nc3c[nH]nc3C(=O)Nc3ccc(CN4CCN(C)CC4)cc3)c2[nH]1 [Compound I-45, 4-(7-(2-methyl-1H-pyrrolo[2,3-c]pyridyl)amino)-N-(4-((4-methyl-1-piperazinyl)methyl)phenyl)-1H-3-pyrazolecarboxamide]
24 | 68.57% | 60.73% | – | – | – | Cc1cc2ccnc(Nc3c[nH]nc3C(=O)Nc3ccc(CN4CCOCC4)cc3)c2[nH]1 [Compound I-46, 4-(7-(2-methyl-1H-pyrrolo[2,3-c]pyridyl)amino)-N-(4-((4-morpholinyl)methyl)phenyl)-1H-3-pyrazolecarboxamide]

Reference: patent publication US9550792B2, “Polycyclic substituted pyrazole kinase activity inhibitors and use thereof” (priority 2013, dated 2017)
